# Results from patent US8980587B2, “Process for producing reveromycin A or a synthetic intermediate thereof, process for producing compounds containing a spiroketal ring and novel antineoplastics, fungicides and therapeutic agents for bone disorders” (RIKEN, priority 2010, dated 2015).
# Where two headings read alike, the source gives them in different places.
# Key:
# [1] = test system: HL-60 cells (human acute promyelocytic leukemia cell line); assay: Growth-inhibiting activity against animal cells (WST-8), HL-60; assay type: cell-based; conditions: for IC50: Homo sapiens, read-out: HL60 IC50; for cancer cell growth-inhibiting activity (in words): summary of Table 5 (HL60, K562, tsFT210), RM-T as compared with RM-A
# Protocol: (§1) HL-60 cells (human acute promyelocytic leukemia cell line) and K562 cells (human chronic myeloid leukemia cell line) were maintained in a culture medium in which RPMI1640 medium (manufactured by Invitrogen) was added with 10% fetal bovine serum (manufactured by Nichirei), 0.5% penicillin/streptomycin solution (manufactured by Invitrogen) at 37° C. under a humidified culture of 5% CO2. tsFT210 cells (mouse breast cancer cells CDC2 temperature sensitive strain) were maintained in a culture medium in which RPMI1640 medium (manufactured by Invitrogen) was added with 5% calf serum (manufactured by Hyclone) and 0.5% penicillin/streptomycin solution at 32° C. under a humidified culture of 5% CO2.
# (§2) HL-60 cells and K562 cells were seeded in a 96-well plate (manufactured by IWAKI) so as to be 1.5×10^4 cells/well/100 μl. tsFT210 cells were seeded in a 96-well plate so as to be 1.6×10^4 cell/well/100 μl. Each of the agents in Table 5 was added at 0.5% (v/v). HL-60 cells and K562 cells were maintained at 37° C. under a humidified culture of 5% CO2 and tsFT210 cells were maintain at 32° C. under a humidified culture of 5% CO2. Forty eight hours after addition of the agent, 10 μl of a reagent SF solution for counting live cells (WST-8 reagent, manufactured by Nakarai tesque) was added to each well. HL-60 cells and K562 cells were maintained at 37° C. under a humidified culture of 5% CO2 for 30 minutes and tsFT210 cells were maintain at 32° C. under a humidified culture of 5% CO2 for one hour. After the reaction, absorbance at 450 nm was measured using a microplate reader (manufactured by PerkinElmer) and a cell proliferation rate was determined from the measurement value.
# [2] = test system: K562 cells (human chronic myeloid leukemia cell line); assay: Growth-inhibiting activity against animal cells (WST-8), K562; assay type: cell-based
# Protocol: as §1, §2
# [3] = test system: osteoclasts; conditions: background art, Patent Document 1; cited from earlier work
# [4] = test system: bone metastasis of tumors; conditions: background art, Patent Document 1; cited from earlier work
# [5] = K562, 48 h, read-out: K562 IC50
structure (smiles),measurement,setting,value
"CCCC[C@@]1(OC(=O)CCC(=O)O)CC[C@]2(CC[C@H](C)[C@@H](C/C=C(C)/C=C/[C@H](O)[C@@H](C)/C=C/C(=O)O)O2)O[C@H]1/C=C/C(C)=C/C(=O)O [RM-A, Reveromycin A]",IC50,"[1]; HL-60, 48 h",2.7 µg/mL
same,IC50,[2]; [5],4.9 µg/mL
same,apoptosis of osteoclasts (in words),[3],induce apoptosis selectively for osteoclasts at low concentrations
same,bone metastasis of tumors (in words),[4],suppress bone metastasis of tumors
CCCCCC[C@@]1(OC(=O)CCC(=O)O)CC[C@]2(CC[C@H](C)[C@@H](C/C=C(C)/C=C/[C@H](O)[C@@H](C)/C=C/C(=O)O)O2)O[C@H]1/C=C/C(C)=C/C(=O)O [RM-E],IC50,"[1]; HL-60, 48 h",1.5 µg/mL
same,cancer cell growth-inhibiting activity (in words),[1],high
same,IC50,[2]; [5],1.9 µg/mL
CCCC[C@H]1CC[C@]2(CC[C@H](C)[C@@H](C/C=C(C)/C=C/[C@H](O)[C@@H](C)/C=C/C(=O)OCC)O2)O[C@H]1/C=C/C(C)=C/C(=O)O [RM-T ethyl-ester],IC50,"[1]; HL-60 cells, 48 hours after addition of the agent, WST-8",0.2 µg/mL
same,cancer cell growth-inhibiting activity (in words),[1],high
same,IC50,"[2]; K562 cells, 48 hours after addition of the agent, WST-8, read-out: K562 IC50",0.7 µg/mL
CCCCC1CCC2(CCC(C)C(C/C=C(C)/C=C/C(O)C(C)/C=C/C(=O)O)O2)OC1/C=C/C(C)=C/C(=O)O (stereo not shown) [RM-T],IC50,"[1]; HL-60, 48 h",0.2 µg/mL
same,cancer cell growth-inhibiting activity (in words),[1],higher
same,IC50,[2]; [5],0.7 µg/mL
